Results: patent US9669028B2, “Substituted 5-(pyrazin-2-yl)-1H-pyrazolo [3, 4-B] pyridine and pyrazolo [3, 4-B] pyridine derivatives as protein kinase inhibitors” (Arrien Pharmaceuticals LLC, priority 2011, dated 2017)
Values after ≈ are worked out from the molar mass of the structure shown.

How the values were obtained:
LRRK2 G2019S = LRRK2 G2019S (Homo sapiens (Human), UniProt Q5S007, G2019S); assay: LRRK2 G2019S Kinase Assay; assay type: biochemical; details: 10 μM ATP
In short: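 Radiometric filter-binding assay: enzyme, substrate peptide and compound were mixed on ice, ATP added, then incubated 20 min at 30° C. Reaction was stopped with phosphoric acid and the peptide captured on filters. Incorporated radioactivity was read by scintillation counting; staurosporine served as reference.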

Rat pharmacokinetics = details: male, Sprague Dawley
Description: To investigate the pharmacokinetic profiles of test compound following intravenous bolus administration and oral gavage in male Sprague Dawley rats.

[1] = tested on: Rat hepatoma (H4IIE) cell line; assay: In vitro toxicology, general cytotoxicity; assay type: cell-based; details: rat, 24 h
Experimental: Cells were seeded into 96-well plates and cultured in medium containing 20% bovine serum. […] General cytotoxicity was evaluated by monitoring membrane integrity (MBR, cell supernatant), cell mass (PI) and mitochondrial function (cellular ATP levels). Rotenone was included as a positive control because it produces measurable effects in all three assays. DMSO at 0.5% in medium was included as a negative control. Three wells per exposure concentration were used in each assay. Results are summarized in Table 8 and are expressed as percent of control, with control values set at 100%. […] Test compounds 13 and 13 HCl were rank-ordered from most to least toxic based on individual membrane integrity and ATP responses as well as resultant TC50 values.
Test compounds 13 and 13 HCl were rank-ordered from highest to lowest probability of producing toxicity based first on membrane toxicity, then on ATP, and finally on cell mass (PI). It is important to note that within a given grouping compounds may be classified as to their primary effect being either cytotoxic, cytostatic, or reducing mitochondrial function. In general, compound responses above 80% of vehicle control are considered to be low-to-no effect, moderates generally rank 80% to 50% of vehicle control, and those compounds that cross the 50% mark are considered to have higher probability of toxicity.

[2] = tested on: 299 protein kinases+17 additional preview kinases; assay: Protein Kinase Selectivity Profiler; assay type: biochemical, human; details: ABL1 T315I, ALK2, ARK5, Aurora A/B/C, BRAF, C-KIT, CLK1-4, CSF1R, DYRK1A-4, FLT3, GSK3β, JAK1-3, KDR, LCK ... TRKA-C; single dose; 10 μM ATP
Experimental: In vitro profiling of the 317 member kinase panel was performed at Reaction Biology Corporation using the “HotSpot” assay platform. Briefly, specific kinase/substrate pairs along with required cofactors were prepared in reaction buffer; 20 mM Hepes (pH 7.5), 10 mM MgCl2, 1 mM EGTA, 0.02% Brij35, 0.02 mg/ml BSA, 0.1 mM Na3VO4, 2 mM DTT, 1% DMSO. Compounds were delivered into the reaction, followed ˜20 min later by addition of a mixture of ATP (Sigma) and 33P ATP (PerkinElmer) to a final concentration of 10 μM. Reactions were carried out at 25° C. for 120 min, followed by spotting of the reactions onto P81 ion exchange filter paper (Whatman). Unbound phosphate was removed by extensive washing of filters in 0.75% phosphoric acid. […] IC50 values and curve fits were obtained using Prism (GraphPad Software). Kinome tree representations were prepared using Kinome Mapper (http://www.reactionbiology.com/apps/kinome/mapper/Launch Kinome.htm). Specifically for the LRRK2 enzyme the substrate LRRKtide (gene bank and protein access numbers NP_940980.2 Q5S007) and clone aa 970-2527 expressed in baculovirus in insect cells with N-terminal GST tag was employed in the study protocol. In the case of DYRK1A (SEQ ID NO 16) the substrate casein (gene bank and protein access numbers NP_001387 Q13627) full length clone expressed in insect with n-terminal tag was used.
A control compound was tested in 10-dose IC50 mode with 3-fold serial dilution starting at 20 μM. Reactions were carried out at 10 μM ATP. Data pages include raw data, % Enzyme activity (relative to DMSO controls), and curve fits.

recombinant human MAO-B = recombinant human MAO-B (Homo sapiens (Human), UniProt P27338); assay: Inhibition of monoamine oxidase MAO-B; assay type: biochemical; details: kynuramine 50 μM, 25 min at 37° C.
Sequence of recombinant human MAO-B (P27338 whole entry): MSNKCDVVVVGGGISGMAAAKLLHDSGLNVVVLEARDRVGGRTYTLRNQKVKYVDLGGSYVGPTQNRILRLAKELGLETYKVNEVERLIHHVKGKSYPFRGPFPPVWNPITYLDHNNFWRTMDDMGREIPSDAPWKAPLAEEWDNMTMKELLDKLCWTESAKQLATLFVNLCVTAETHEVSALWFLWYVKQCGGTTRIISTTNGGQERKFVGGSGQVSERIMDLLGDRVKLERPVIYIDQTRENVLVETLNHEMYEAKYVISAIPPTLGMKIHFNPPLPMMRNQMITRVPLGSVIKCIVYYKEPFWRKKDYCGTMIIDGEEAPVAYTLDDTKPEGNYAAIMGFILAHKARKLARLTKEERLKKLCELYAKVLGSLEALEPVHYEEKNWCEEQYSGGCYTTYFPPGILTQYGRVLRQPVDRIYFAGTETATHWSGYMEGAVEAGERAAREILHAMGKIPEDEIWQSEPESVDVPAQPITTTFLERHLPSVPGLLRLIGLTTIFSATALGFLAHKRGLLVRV
Experimental: (§1) Test compounds (0.01-100 μM) final DMSO concentration 0.1%, were incubated with recombinant human MAO-A (2 μg/mL) or MAO-B (2 μg/mL) in the presence of the probe substrate kynuramine (50 μM) for 25 min at 37° C. […] The reactions were terminated by addition of methanol containing internal standard for analytical quantification. The quenched samples were incubated at 4° C. for 10 min and centrifuged at 4° C. for 10 min. The supernatant was removed and analyzed by LC-MS/MS for the probe metabolite 4-hydroxyquinoline.

recombinant human MAO-A = recombinant human MAO-A (Homo sapiens (Human), UniProt P21397); assay: Inhibition of monoamine oxidase MAO-A; assay type: biochemical; details: kynuramine 50 μM, 25 min at 37° C.
Sequence of recombinant human MAO-A (P21397 whole entry): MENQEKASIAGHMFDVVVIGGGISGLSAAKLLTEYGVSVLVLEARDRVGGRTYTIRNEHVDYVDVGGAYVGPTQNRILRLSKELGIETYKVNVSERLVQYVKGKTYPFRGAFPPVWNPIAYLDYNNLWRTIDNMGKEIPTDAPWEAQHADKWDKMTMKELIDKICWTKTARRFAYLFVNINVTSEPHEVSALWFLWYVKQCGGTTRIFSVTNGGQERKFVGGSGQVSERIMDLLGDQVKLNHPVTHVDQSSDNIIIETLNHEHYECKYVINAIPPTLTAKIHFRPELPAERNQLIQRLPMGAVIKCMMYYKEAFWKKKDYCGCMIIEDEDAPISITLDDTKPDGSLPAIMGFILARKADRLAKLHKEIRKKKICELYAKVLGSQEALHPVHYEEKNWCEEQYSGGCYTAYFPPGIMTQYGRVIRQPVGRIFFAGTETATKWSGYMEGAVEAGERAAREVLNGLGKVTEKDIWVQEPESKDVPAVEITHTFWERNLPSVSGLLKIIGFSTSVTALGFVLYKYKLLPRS
Experimental: as §1

DYRK1A = DYRK1A (Homo sapiens (Human), UniProt Q13627); assay: In vitro DYRK1A inhibition assay; assay type: biochemical
LRRK2 = LRRK2 (Homo sapiens (Human), UniProt Q5S007); assay: LRRK2 Kinase Assay; assay type: biochemical; details: 10 μM ATP
Sequence of LRRK2 (Q5S007 970-2527): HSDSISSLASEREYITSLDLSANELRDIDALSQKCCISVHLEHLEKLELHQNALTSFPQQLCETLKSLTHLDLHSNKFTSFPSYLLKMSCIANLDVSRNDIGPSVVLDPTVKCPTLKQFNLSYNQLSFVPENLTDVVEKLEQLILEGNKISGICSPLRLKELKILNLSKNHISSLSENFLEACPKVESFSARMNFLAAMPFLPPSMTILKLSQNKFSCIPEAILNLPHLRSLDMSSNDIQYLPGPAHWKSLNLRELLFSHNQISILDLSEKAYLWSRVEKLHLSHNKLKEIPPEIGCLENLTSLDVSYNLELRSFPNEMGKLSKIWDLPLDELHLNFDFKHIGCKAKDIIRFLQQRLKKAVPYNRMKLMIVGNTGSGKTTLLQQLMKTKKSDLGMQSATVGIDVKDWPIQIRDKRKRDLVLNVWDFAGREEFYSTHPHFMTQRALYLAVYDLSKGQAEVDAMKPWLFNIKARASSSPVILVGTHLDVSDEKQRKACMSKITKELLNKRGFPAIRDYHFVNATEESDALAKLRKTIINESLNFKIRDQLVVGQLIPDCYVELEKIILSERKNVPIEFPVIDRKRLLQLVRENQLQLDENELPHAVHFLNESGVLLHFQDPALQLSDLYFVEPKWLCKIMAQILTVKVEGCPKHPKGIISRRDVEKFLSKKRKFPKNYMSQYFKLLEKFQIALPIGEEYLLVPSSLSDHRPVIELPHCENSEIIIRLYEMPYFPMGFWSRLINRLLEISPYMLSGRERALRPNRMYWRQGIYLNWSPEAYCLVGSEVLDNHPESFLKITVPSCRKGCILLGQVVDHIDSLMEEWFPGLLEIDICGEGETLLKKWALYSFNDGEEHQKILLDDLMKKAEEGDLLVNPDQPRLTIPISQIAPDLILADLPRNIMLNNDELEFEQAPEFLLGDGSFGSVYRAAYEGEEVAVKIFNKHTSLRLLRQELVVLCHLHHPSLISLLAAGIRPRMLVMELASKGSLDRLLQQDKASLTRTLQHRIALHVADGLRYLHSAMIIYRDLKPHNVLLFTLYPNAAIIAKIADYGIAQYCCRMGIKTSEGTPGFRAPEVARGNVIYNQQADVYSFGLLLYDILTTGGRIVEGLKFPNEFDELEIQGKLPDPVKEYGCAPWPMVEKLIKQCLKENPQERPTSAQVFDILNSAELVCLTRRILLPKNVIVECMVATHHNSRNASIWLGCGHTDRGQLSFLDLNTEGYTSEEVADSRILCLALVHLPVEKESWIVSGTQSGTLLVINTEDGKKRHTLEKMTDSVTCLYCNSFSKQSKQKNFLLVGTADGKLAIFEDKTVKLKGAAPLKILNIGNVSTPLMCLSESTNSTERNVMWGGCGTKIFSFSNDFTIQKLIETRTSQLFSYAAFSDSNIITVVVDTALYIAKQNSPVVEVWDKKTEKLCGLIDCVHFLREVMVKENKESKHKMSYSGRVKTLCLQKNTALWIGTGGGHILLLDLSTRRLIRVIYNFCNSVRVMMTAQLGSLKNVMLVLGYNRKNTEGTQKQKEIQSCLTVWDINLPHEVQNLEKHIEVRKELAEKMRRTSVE
In short: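 Radiometric filter-binding assay: compound pre-incubated ~20 min with kinase and substrate peptide in 20 mM HEPES pH 7.5, 10 mM MgCl2, 1% DMSO, then 10 μM ATP with 33P-ATP added.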

[3] = tested on: MPTP-injected C57 black mice; assay: MPTP mouse model of Parkinson's disease, oral pre-treatment; assay type: in vivo
[4] = orally administered, pre-treatment

Sequence of LRRK2 G2019S (Q5S007 970-2527 G2019S): as the sequence (Q5S007 970-2527) above, with G1050S counted along it

Cc1n[nH]c2ncc(-c3cncc(NC4CCN(C)CC4)n3)cc12 [Compound 13, 6-(3methyl-1H-pyrazolo[3,4-b]pyridine-5yl)-N-(1-methylpiperidine-4yl)pyrazin-2-amine]
IC50 (LRRK2 G2019S): < 0.5 µM
AUC(0-t) (Rat pharmacokinetics; in vivo, iv, 5 mg/kg): 1020 ng·h/mL
Vd (Rat pharmacokinetics; in vivo, iv, 5 mg/kg): 15.2 L/kg
clearance (Rat pharmacokinetics; in vivo, iv, 5 mg/kg): 123 mL/min/kg
AUC(0-t) (Rat pharmacokinetics; in vivo, po, 30 mg/kg): 1040 ng·h/mL
Cmax (Rat pharmacokinetics; in vivo, po, 30 mg/kg): 133 ng/mL
half-life (Rat pharmacokinetics; rat, iv, 5 mg/kg): 2.26 h
F (Rat pharmacokinetics; rat, po, 30 mg/kg): 24%
Tmax (Rat pharmacokinetics; rat, po, 30 mg/kg): 6.7 h
ATP TC50 [1]: >50 µM
Cell Mass TC50 [1]: >50 µM
Mem Tox TC50 [1]: >50 µM
ATP % Control ([1]; 5 μM): 99%
Cell Mass % Control ([1]; 5 μM): 93%
Mem Tox % Control ([1]; 5 μM): 100%
ATP % Control ([1]; 10 μM): 99%
Cell Mass % Control ([1]; 10 μM): 88%
Mem Tox % Control ([1]; 10 μM): 96%
ATP % Control ([1]; 50 μM): 74%
Cell Mass % Control ([1]; 50 μM): 71%
Mem Tox % Control ([1]; 50 μM): 94%
activity against kinases in broader scope, relative to DMSO control [2]: 5-15%
IC50 (recombinant human MAO-B): > 100 µM
IC50 (recombinant human MAO-A): > 100 µM
solubility (physchem): 50 µM (≈ 16.2 µg/mL)
IC50 (DYRK1A): < 0.5 µM
IC50 (LRRK2): < 0.5 µM
protection against MPTP-induced TH cell loss and dopaminergic degeneration in substantia nigra and striatum ([3]; 10 mg/kg and 30 mg/kg oral): dose-dependent protection
locomotor activities in MPTP-injected mice [3, 4]: Improve Locomotor Activities
striatal dopamine levels in MPTP treated mice [3, 4]: Restore Striatal Dopamine Levels
